Tested on: peripheral blood CXCR3^+CD45^+CD3^+CD4^− T cells
Assay: Clinical trial NCT02688712: peripheral blood CXCR3 flow cytometry, baseline vs day 15
Type: in vivo, human
Conditions: rectal cancer patients, after two weeks of LY2157299, majority of patients, FIG. 12C
From the text: FIGS. 12A-12E are a series of panels showing TGFβ-mediated suppression of CXCR3-dependent CD8^+ T cell chemotaxis is relieved by LY2157299 in human patients with rectal cancer. […] FIG. 12B illustrates the clinical trial schema for a phase II clinical trial of rectal cancer patients and sample collection intervals. Patients receive two cycles of LY2157299 on days 1-14 and again on days 30-43 while receiving standard of care chemoradiation on days 15-57 prior to surgery. […] Patients are grouped by nodal status following neoadjuvant treatment (ypN). On the right, percent change in frequency of CXCR3^+CD3^+CD4^− T cells between days 1 and 15 is shown versus the neoadjuvant rectal (NAR) score. […] Each patient is shown (thin gray lines) along with the mean of all patients (thick black line). […] Error bars in each subpanel are standard deviations.
Clinical trial analysis: Patients enrolled in clinical trial NCT02688712 provided consent prior to tissue collection as designed and approved in PHS IRB #15-050. […] Pathological assessment for neoadjuvant treatment response was evaluated in the surgical resection specimen including excised lymph nodes. Neoadjuvant rectal (NAR) score was calculated by the published, validated formula (George et al, Curr. Colorectal Cancer Rep. 11: 275-280): [5*ypN−3(cT−ypT)+12]^2/9.61. […]

Cc1cccc(-c2nn3c(c2-c2ccnc4ccc(C(N)=O)cc24)CCC3)n1 [LY2157299]
peripheral blood CXCR3 expression, change day 0 to day 15: decrease in peripheral blood CXCR3 expression
